Reference: ChEMBL document CHEMBL5247620, “Lupane derivatives containing various aryl substituents in the position 3 have selective cytostatic effect in leukemic cancer cells including resistant phenotypes” (Eur J Med Chem, 2022)
Calls of active or inactive are those of the source. No cut-off for these calls is given here.

Experiments:
CCRF-CEM [1] = assay: Cytotoxicity against human CCRF-CEM cells assessed as inhibition of cell growth incubated for 72 hrs by MTS assay; assay type: functional, cell-based
CEM-DNR = assay: Cytotoxicity against human CEM-DNR cells assessed as inhibition of cell growth incubated for 72 hrs by MTS assay; assay type: functional, cell-based
K562 = assay: Cytotoxicity against human K562 cells assessed as inhibition of cell growth incubated for 72 hrs by MTS assay; assay type: functional, cell-based; settings: K562, 72 h
[2] = Cytotoxicity against human K562-Tax cells assessed as inhibition of cell growth incubated for 72 hrs by MTS assay; assay type: functional, cell-based
A549 = assay: Cytotoxicity against human A549 cells assessed as inhibition of cell growth incubated for 72 hrs by MTS assay; assay type: functional, cell-based; settings: A549, 72 h
HCT-116 = assay: Cytotoxicity against human HCT-116 cells assessed as inhibition of cell growth incubated for 72 hrs by MTS assay; assay type: functional, cell-based; settings: HCT-116, 72 h
[3] = Cytotoxicity against human p53HCT116 cells assessed as inhibition of cell growth incubated for 72 hrs by MTS assay; assay type: functional, cell-based; settings: p53HCT116, 72 h
U2OS = assay: Cytotoxicity against human U2OS cells assessed as inhibition of cell growth incubated for 72 hrs by MTS assay; assay type: functional, cell-based
[4] = Cytotoxicity against human BJ cells assessed as inhibition of cell growth incubated for 72 hrs by MTS assay; assay type: toxicity, cell-based
[5] = Cytotoxicity against human MRC5 cells assessed as inhibition of cell growth incubated for 72 hrs by MTS assay; assay type: toxicity, cell-based
CCRF-CEM [6] = assay: Induction of apoptosis in human CCRF-CEM cells assessed as viable cells at 1 times IC50 concentration incubated for 24 hrs by annexin V FITC/propidium iodide staining based flow cytometry (reference value: 96 %); assay type: functional
CCRF-CEM [7] = assay: Induction of apoptosis in human CCRF-CEM cells assessed as early apoptotic cells at 1 times IC50 concentration incubated for 24 hrs by annexin V FITC/propidium iodide staining based flow cytometry (reference value: 2.6 %); assay type: functional
CCRF-CEM [8] = assay: Induction of apoptosis in human CCRF-CEM cells assessed as late apoptotic cells at 1 times IC50 concentration incubated for 24 hrs by annexin V FITC/propidium iodide staining based flow cytometry (reference value: 1.4 %); assay type: functional
CCRF-CEM [9] = assay: Induction of apoptosis in human CCRF-CEM cells assessed as viable cells at 5 times IC50 concentration incubated for 24 hrs by annexin V FITC/propidium iodide staining based flow cytometry (reference value: 96 %); assay type: functional
CCRF-CEM [10] = assay: Induction of apoptosis in human CCRF-CEM cells assessed as early apoptotic cells at 5 times IC50 concentration incubated for 24 hrs by annexin V FITC/propidium iodide staining based flow cytometry (reference value: 2.6 %); assay type: functional
CCRF-CEM [11] = assay: Induction of apoptosis in human CCRF-CEM cells assessed as late apoptotic cells at 5 times IC50 concentration incubated for 24 hrs by annexin V FITC/propidium iodide staining based flow cytometry (reference value: 1.4 %); assay type: functional
CCRF-CEM [12] = assay: Induction of apoptosis in human CCRF-CEM cells assessed as decrease in cell number at 1 times IC50 concentration incubated for 24 to 74 hrs by annexin V FITC/propidium iodide staining based flow cytometry; assay type: functional; settings: time 24-74 hrs
CCRF-CEM [13] = assay: Induction of apoptosis in human CCRF-CEM cells assessed as decrease in cell number at 5 times IC50 concentration incubated for 24 to 74 hrs by annexin V FITC/propidium iodide staining based flow cytometry; assay type: functional; settings: time 24-74 hrs
[14] = Chemical stability of the compound in PBS buffer assessed as compound remaining at pH 7.4 at 2 uM measured after 15 mins by RF-MS analysis; assay type: physicochemical; settings: read-out: Stability
[15] = Chemical stability of the compound in PBS buffer assessed as compound remaining at pH 7.4 at 2 uM measured after 30 mins by RF-MS analysis; assay type: physicochemical; settings: read-out: Stability
[16] = Chemical stability of the compound in PBS buffer assessed as compound remaining at pH 7.4 at 2 uM measured after 60 mins by RF-MS analysis; assay type: physicochemical; settings: read-out: Stability
[17] = Chemical stability of the compound in PBS buffer assessed as compound remaining at pH 7.4 at 2 uM measured after 120 mins by RF-MS analysis; assay type: physicochemical; settings: read-out: Stability
[18] = Plasma protein binding in human assessed as fraction bound at 10 uM incubated for 4 hrs by rapid equilibrium dialysis based RF-MS analysis; assay type: ADME, cell-free; settings: read-out: PPB (converted)
[19] = Plasma stability in human assessed as compound remaining at 2 uM measured after 15 mins by RF-MS analysis; assay type: ADME, cell-free; settings: read-out: Stability
[20] = Plasma stability in human assessed as compound remaining at 2 uM measured after 30 mins by RF-MS analysis; assay type: ADME, cell-free; settings: read-out: Stability
[21] = Plasma stability in human assessed as compound remaining at 2 uM measured after 60 mins by RF-MS analysis; assay type: ADME, cell-free; settings: read-out: Stability
[22] = Plasma stability in human assessed as compound remaining at 2 uM measured after 120 mins by RF-MS analysis; assay type: ADME, cell-free; settings: read-out: Stability
[23] = Microsomal stability in human liver microsome as compound remaining at 2 uM measured after 15 mins in presence of NADPH by RF-MS analysis; assay type: ADME; settings: liver microsomes, read-out: Stability
[24] = Microsomal stability in human liver microsome as compound remaining at 2 uM measured after 30 mins in presence of NADPH by RF-MS analysis; assay type: ADME; settings: liver microsomes, read-out: Stability
[25] = Microsomal stability in human liver microsome as compound remaining at 2 uM measured after 60 mins in presence of NADPH by RF-MS analysis; assay type: ADME; settings: liver microsomes, read-out: Stability
[26] = Apparent permeability across apical to basolateral side in dog MDCK-MDR1 cells incubated for 1 hr by high-throughput spectrometric analysis; assay type: ADME, cell-based, Canis lupus familiaris
[27] = Apparent permeability across apical to basolateral side in human Caco-2 cells incubated for 2 hr by high-throughput spectrometric analysis; assay type: ADME, cell-based
[28] = Efflux ratio of apparent permeability from basolateral to apical side over apical to basolateral side in dog MDCK-MDR1 cells incubated for 1 hr by high-throughput spectrometric analysis; assay type: ADME, cell-based, Canis lupus familiaris
[29] = Efflux ratio of apparent permeability from basolateral to apical side over apical to basolateral side in human Caco-2 cells incubated for 2 hr by high-throughput spectrometric analysis; assay type: ADME, cell-based
[30] = Apparent permeability across apical to basolateral side in dog MDCK-MDR1 cells assessed as drug recovery incubated for 1 hr by high-throughput spectrometric analysis; assay type: ADME, cell-based, Canis lupus familiaris; settings: read-out: Drug recovery
[31] = Apparent permeability across apical to basolateral side in human Caco-2 cells assessed as drug recovery incubated for 2 hr by high-throughput spectrometric analysis; assay type: ADME, cell-based; settings: read-out: Drug recovery
CCRF-CEM [32] = assay: Induction of cell cycle arrest in human CCRF-CEM cells assessed as accumulation of cells at G1 phase at 1 times IC50 concentration incubated for 24 to 72 hrs by propidium iodide staining based flow cytometry; assay type: functional; settings: time 24-72 hrs
CCRF-CEM [33] = assay: Induction of cell cycle arrest in human CCRF-CEM cells assessed as accumulation of cells at G1 phase at 5 times IC50 concentration incubated for 24 to 72 hrs by propidium iodide staining based flow cytometry; assay type: functional; settings: time 24-72 hrs
CCRF-CEM [34] = assay: Induction of cell cycle arrest in human CCRF-CEM cells assessed as decrease of cell population at S phase at 1 times IC50 concentration incubated for 24 to 72 hrs by propidium iodide staining based flow cytometry; assay type: functional; settings: time 24-72 hrs
CCRF-CEM [35] = assay: Induction of cell cycle arrest in human CCRF-CEM cells assessed as decrease of cell population at S phase at 5 times IC50 concentration incubated for 24 to 72 hrs by propidium iodide staining based flow cytometry; assay type: functional; settings: time 24-72 hrs
CCRF-CEM [36] = assay: Induction of apoptosis in human CCRF-CEM cells assessed as decrease in Rb phosphorylation level at Ser780 at 5 times IC50 concentration incubated for 24 hrs by western blot assay; assay type: functional, cell-based
CCRF-CEM [37] = assay: Induction of apoptosis in human CCRF-CEM cells assessed as decrease in Rb phosphorylation level at Ser807/811 at 5 times IC50 concentration incubated for 24 hrs by western blot assay; assay type: functional, cell-based
CCRF-CEM [38] = assay: Induction of apoptosis in human CCRF-CEM cells assessed as decrease in cyclin A protein expression level at 5 times IC50 concentration incubated for 24 hrs by western blot assay; assay type: functional, cell-based
CCRF-CEM [39] = assay: Induction of apoptosis in human CCRF-CEM cells assessed as decrease in Bcl-2 protein expression level at 5 times IC50 concentration incubated for 24 hrs by western blot assay; assay type: functional, cell-based
CCRF-CEM [40] = assay: Induction of apoptosis in human CCRF-CEM cells assessed as effect on total Rb protein level at 5 times IC50 concentration incubated for 24 hrs by western blot assay; assay type: functional, cell-based
CCRF-CEM [41] = assay: Induction of apoptosis in human CCRF-CEM cells assessed as effect on total Rb protein level at 1 times IC50 concentration incubated for 24 hrs by western blot assay; assay type: functional, cell-based

SMILES: C=C(C)[C@@H]1CC[C@]2(C(=O)O)CC[C@]3(C)[C@H](CC[C@@H]4[C@@]5(C)CC=C(c6cccc(N)c6)C(C)(C)[C@@H]5CC[C@]43C)[C@@H]12
- IC50 (CCRF-CEM [1]): 1.8 µM
- IC50 (CEM-DNR): 8.9 µM
- IC50 (K562): 36 µM
- IC50 [2]: 9 µM
- IC50 (A549): 9.7 µM
- IC50 (HCT-116): 12 µM
- IC50 [3]: 10 µM
- IC50 (U2OS): 31 µM
- IC50 at 72 h [4]: 50 µM
- IC50 at 72 h [5]: 47 µM
- Activity (CCRF-CEM [6]): 95.2%
- Activity (CCRF-CEM [7]): 3.3%
- Activity (CCRF-CEM [8]): 1.5%
- Activity (CCRF-CEM [9]): 94.8%
- Activity (CCRF-CEM [10]): 3.4%
- Activity (CCRF-CEM [11]): 1.8%
- Activity (CCRF-CEM [12]): Active
- Activity (CCRF-CEM [13]): Active
- remaining at 0.25 h, 2 µM [14]: 95.5%
- remaining at 0.5 h, 2 µM [15]: 91.7%
- remaining at 1 h, 2 µM [16]: 91.8%
- remaining at 2 h, 2 µM [17]: 96.7%
- fraction unbound at 4 h, 10 µM [18]: 0.502
- remaining at 0.25 h, 2 µM [19]: 97.7%
- remaining at 0.5 h, 2 µM [20]: 88.7%
- remaining at 1 h, 2 µM [21]: 82.5%
- remaining at 2 h, 2 µM [22]: 71.5%
- remaining at 0.25 h, 2 µM [23]: 108%
- remaining at 0.5 h, 2 µM [24]: 107%
- remaining at 1 h, 2 µM [25]: 94.8%
- Papp A→B at 1 h [26]: 1.73 ×10⁻⁶ cm/s
- Papp A→B at 2 h [27]: 0.053 ×10⁻⁶ cm/s
- efflux ratio at 1 h [28]: 7.23
- efflux ratio at 2 h [29]: 3.92
- recovery at 1 h [30]: 31.5%
- recovery at 2 h [31]: 106%
- Activity (CCRF-CEM [32]): Active
- Activity (CCRF-CEM [33]): Active
- Activity (CCRF-CEM [34]): Active
- Activity (CCRF-CEM [35]): Active
- Activity (CCRF-CEM [36]): Active
- Activity (CCRF-CEM [37]): Active
- Activity (CCRF-CEM [38]): Active
- Activity (CCRF-CEM [39]): Active
- Activity (CCRF-CEM [40]): inactive
- Activity (CCRF-CEM [41]): inactive
